Several values for one entry are separate records, joined by “and”; a condition that tells them apart may be missing. Equal values may be shown once.
Conditions: Crystal, Rate of evaporation

[Ar] [argon]
Conditions | vapor or sublimation pressure
27.51 K | 1.95e-09 kPa and 1.73e-09 kPa
28.01 K | 3.29e-09 kPa and 3.3e-09 kPa
28.5 K | 5.92e-09 kPa
28.51 K | 5.83e-09 kPa
29 K | 1.028e-08 kPa
29.01 K | 1.035e-08 kPa
29.5 K | 1.808e-08 kPa
29.51 K | 1.812e-08 kPa
30 K | 3.105e-08 kPa and 3.116e-08 kPa
30.49 K | 5.189e-08 kPa
30.5 K | 5.157e-08 kPa
30.99 K | 8.27e-08 kPa
31 K | 8.469e-08 kPa

O=C=O [carbon dioxide]
Conditions | vapor or sublimation pressure
80.03 K | 7.21e-09 kPa
80.53 K | 8.98e-09 kPa and 8.61e-09 kPa
81.03 K | 1.11e-08 kPa and 1.252e-08 kPa
81.52 K | 1.416e-08 kPa and 1.56e-08 kPa
82.02 K | 1.819e-08 kPa and 1.911e-08 kPa
82.52 K | 2.353e-08 kPa and 2.519e-08 kPa
83.02 K | 2.981e-08 kPa and 3.328e-08 kPa
83.53 K | 3.967e-08 kPa and 4.446e-08 kPa
84.03 K | 5.272e-08 kPa and 5.947e-08 kPa
84.53 K | 6.988e-08 kPa and 6.758e-08 kPa

[Kr] [krypton]
Conditions | vapor or sublimation pressure
38.5 K | 1.68e-09 kPa and 1.86e-09 kPa
39 K | 2.84e-09 kPa and 2.68e-09 kPa
39.49 K | 4.01e-09 kPa
39.5 K | 4.34e-09 kPa
39.99 K | 6.3e-09 kPa
40 K | 6.56e-09 kPa
40.49 K | 9.97e-09 kPa and 9.68e-09 kPa
41 K | 1.527e-08 kPa and 1.475e-08 kPa
41.5 K | 2.312e-08 kPa and 2.262e-08 kPa
42 K | 3.529e-08 kPa and 3.422e-08 kPa
42.5 K | 5.406e-08 kPa
42.51 K | 5.092e-08 kPa

[Ne] [neon]
Conditions | vapor or sublimation pressure [kPa]
8.004 K | 2.98e-08
8.251 K | 6.87e-08
8.502 K | 1.633e-07
8.749 K | 3.617e-07
8.792 K | 4.482e-07
8.996 K | 9.17e-07
9.046 K | 9.212e-07
9.251 K | 1.832e-06
9.468 K | 2.529e-06
9.518 K | 3.574e-06
9.727 K | 5.097e-06
9.776 K | 6.564e-06

N#N [nitrogen]
Conditions | vapor or sublimation pressure [kPa]
23.5 K | 1.9e-10
23.51 K | 1.5e-10
24 K | 4e-10
24.5 K | 8.2e-10
25 K | 1.66e-09
25.49 K | 3.24e-09
25.99 K | 6.63e-09
26.48 K | 1.287e-08
26.99 K | 2.45e-08
27.48 K | 3.89e-08

O=O [oxygen]
Conditions | vapor or sublimation pressure
28.99 K | 1.81e-09 kPa
29.48 K | 5.02e-09 kPa and 3.06e-09 kPa
29.98 K | 5.64e-09 kPa
29.99 K | 8.75e-09 kPa
30.47 K | 1.01e-08 kPa and 1.531e-08 kPa
30.98 K | 1.855e-08 kPa and 2.698e-08 kPa
31.48 K | 3.339e-08 kPa and 4.84e-08 kPa
31.77 K | 8.494e-08 kPa
31.98 K | 5.894e-08 kPa
32.48 K | 1.034e-07 kPa and 1.469e-07 kPa
32.98 K | 1.632e-07 kPa

O [water]
Conditions | vapor or sublimation pressure
154.97 K | 3.289e-08 kPa and 2.922e-08 kPa
155.96 K | 4.124e-08 kPa
156.96 K | 5.337e-08 kPa
156.97 K | 6.144e-08 kPa
157.96 K | 7.108e-08 kPa
158.97 K | 9.378e-08 kPa
159.96 K | 1.174e-07 kPa
159.98 K | 1.185e-07 kPa
160.47 K | 1.414e-07 kPa
160.96 K | 1.421e-07 kPa
160.97 K | 1.636e-07 kPa
161.47 K | 1.872e-07 kPa

[Xe] [xenon]
Conditions | vapor or sublimation pressure
50.01 K | 4.67e-10 kPa and 4.85e-10 kPa
51.02 K | 1.113e-09 kPa and 1.049e-09 kPa
52.02 K | 2.544e-09 kPa
52.52 K | 2.776e-09 kPa and 3.083e-09 kPa
53.02 K | 4.226e-09 kPa and 4.645e-09 kPa
53.52 K | 5.796e-09 kPa and 5.947e-09 kPa
54.02 K | 8.078e-09 kPa and 8.286e-09 kPa
54.52 K | 1.126e-08 kPa and 1.15e-08 kPa
55.02 K | 1.528e-08 kPa and 1.544e-08 kPa
55.52 K | 2.113e-08 kPa
56.02 K | 2.907e-08 kPa and 2.973e-08 kPa
56.52 K | 3.938e-08 kPa
56.53 K | 4.024e-08 kPa
57.03 K | 5.416e-08 kPa and 5.32e-08 kPa

From the NIST ThermoML archive (doi:10.1016/j.jct.2017.11.004)
